# Measured values taken from publication PMC7059627 (FASEB bioAdvances, 2020).
# Tests used:
# mitochondrial complex I [1] = molecular target: T1, mitochondrial complex I (Bos taurus, UniProt P03887+P17694+P42026); experiment: NADH:decylubiquinone/DCPIP complex I kinetics in freeze-thawed mitochondria; assay type: biochemical
# mitochondrial complex I [2] = molecular target: T1, mitochondrial complex I; experiment: Michaelis-Menten kinetics with DCPIP reduction, NADH as electron donor; assay type: cell-based
# T1 sequence (P42026 38-216): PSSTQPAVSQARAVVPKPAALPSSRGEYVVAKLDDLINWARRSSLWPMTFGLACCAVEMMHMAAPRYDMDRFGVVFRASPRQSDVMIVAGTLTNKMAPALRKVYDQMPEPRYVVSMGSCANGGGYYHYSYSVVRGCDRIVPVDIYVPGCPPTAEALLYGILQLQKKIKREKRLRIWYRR
# T1 sequence (P03887 whole entry): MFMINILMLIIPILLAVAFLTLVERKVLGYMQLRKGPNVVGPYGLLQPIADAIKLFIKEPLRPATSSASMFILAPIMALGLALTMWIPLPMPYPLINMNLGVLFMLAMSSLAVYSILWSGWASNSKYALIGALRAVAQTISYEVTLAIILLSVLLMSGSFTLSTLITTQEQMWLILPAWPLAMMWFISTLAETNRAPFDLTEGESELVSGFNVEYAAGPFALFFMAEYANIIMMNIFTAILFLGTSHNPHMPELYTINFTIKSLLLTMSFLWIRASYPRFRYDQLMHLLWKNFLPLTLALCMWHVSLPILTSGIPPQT
# T1 sequence (P17694 34-463): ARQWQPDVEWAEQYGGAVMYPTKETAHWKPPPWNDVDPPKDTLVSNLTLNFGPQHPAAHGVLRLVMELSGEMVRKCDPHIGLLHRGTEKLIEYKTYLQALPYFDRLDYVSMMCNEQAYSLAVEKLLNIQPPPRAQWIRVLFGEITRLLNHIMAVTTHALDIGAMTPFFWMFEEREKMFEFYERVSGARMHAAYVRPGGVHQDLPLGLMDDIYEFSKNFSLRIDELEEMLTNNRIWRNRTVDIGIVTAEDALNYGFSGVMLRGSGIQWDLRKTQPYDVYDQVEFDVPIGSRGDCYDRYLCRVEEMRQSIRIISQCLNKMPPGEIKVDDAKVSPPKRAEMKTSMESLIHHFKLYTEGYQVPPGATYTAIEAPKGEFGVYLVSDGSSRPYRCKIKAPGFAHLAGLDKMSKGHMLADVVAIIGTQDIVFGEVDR
SMILES,Ki (mitochondrial complex I [1]) [nM],"Michaelis-Menten kinetics with DCPIP reduction, NADH as electron donor (mitochondrial complex I [2])"
"CCCCCCCc1[nH]c2ccccc2c(=O)c1O [PQS, 2‐heptyl‐3‐hydroxy‐4(1H)‐quinolone]",560,
CCCCCCCCCCC1=C(C)C(=O)C(OC)=C(OC)C1=O [decylubiquinone],,Kinetics with the substrate analog decylubiquinone at different PQS concentrations were measured
